A short description of data set [1]: Semi-quantitative solubility of zolpidem tartrate in different cyclodextrin solutions (Example 1). In kind it is physicochemical. The note with it: aqueous cyclodextrin solution, aqueous with cosolvent or surfactant or cyclodextrin, thermodynamic from solid, room temperature. The method, then:
A semi-quantitative comparison was made of the ability of different cyclodextrins to enhance the aqueous solubility of zolpidem tartrate.
Aqueous solutions were prepared containing 200, 300 and 400 mg/ml of three types of cyclodextrin. These were hydroxypropyl-β-cyclodextrin (HP-CD) (Cavamax® W7 HP Pharma, Wacker, Germany), methylated-β-cyclodextrin (M-CD) (Cavamax® W7 M Pharma, Wacker) and sulfobutylether-β-cyclodextrin (SBE-CD) (Captisol®, CyDex, USA). 25 mg samples of zolpidem tartrate (ZMC, Zheijang, Hangzhou, China) were added to a 0.5 ml portion of each cyclodextrin solution. The mixtures (containing 50 mg/ml drug) were stirred overnight at room temperature. If drug dissolved then more was added. If undissolved drug remained then an additional 0.5 ml of cyclodextrin solution was added and stirring continued. From this experiment an estimate could be made of zolpidem tartrate solubility in the different cyclodextrin solutions.

Data set [2] is described as follows: Saturated solubility of zolpidem tartrate in SBE-CD solutions with and without chitosan, UV 296 nm (Example 2). In kind it is physicochemical. The note with it: aqueous SBE-CD solution, 18 °C, aqueous with cosolvent or surfactant or cyclodextrin, thermodynamic from solid. How it is done:
A stock solution was prepared containing 400 mg/ml SBE-CD in water and then dilutions made to 100, 150, 200, 250 and 300 mg/ml. Into 2 ml portions of the stock and diluted SBE-CD solutions was dissolved 10 mg of chitosan glutamate (Protasan UPG213, NovaMatrix, Drammen, Norway). To each of these samples of SBE-CD/chitosan solution and to each of six chitosan-free 2 ml samples of SBE-CD solutions were added 140 mg samples of zolpidem tartrate. The samples were left to stir overnight at room temperature (18° C.). If during this time all the drug dissolved, further amounts were added until a suspension was formed (i.e. saturated drug solution formed). After further stirring for up to 72 hours, suspensions were filtered (0.45 μm filter, Gelman, Portsmouth, UK) to recover saturated zolpidem tartrate solutions. The filtrate samples were diluted in water and the UV absorbance at 296 nm measured. By reference to a calibration curve of UV absorbance (296 nm) vs. zolpidem concentration, the concentration of zolpidem in the samples was calculated. Solubility data are presented in Table 2 and presented graphically in FIG. 1.

Data set [3] is described as follows: Pharmacokinetic performance of intranasal and IV zolpidem formulations in sheep (Example 6). The note with it: for Tmax: intranasal, zolpidem dose 20 mg, mean n = 5. The method, then:
A group of five female sheep was used, each weighing around 45 kg. The formulations were administered to a randomised cross-over design. […] This dose was provided by transferring 3.5 ml of the test formulation into a glass bottle, attaching a Valois VP7 spray pump and actuator to the bottle, priming the pump and then administering two 0.1 ml sprays into each nostril.
Blood samples were collected over a 360 minute period following dosing and plasma separated. Plasma samples were assayed by an HPLC method for zolpidem content. Pharmacokinetic parameters were calculated from the plasma data.

Where a name gives a salt, the structure may show the parent alone.

For the compound `Cc1ccc(-c2nc3ccc(C)cn3c2CC(=O)N(C)C)cc1` [zolpidem tartrate], the solubility in data set [1] (HP-CD 200 mg/ml) fell in the range of 25 to 31 mg/mL; in data set [1] (HP-CD 300 mg/ml) it was 31 to 36 mg/mL; in data set [1] (HP-CD 400 mg/ml), 36 to 50 mg/mL; in data set [1] (M-CD 200 mg/ml), 25 to 31 mg/mL; in data set [1] (M-CD 300 mg/ml), 31 to 36 mg/mL; in data set [1] (M-CD 400 mg/ml) it was 31 to 36 mg/mL. In addition, the solubility was greater than 50 mg/mL in data set [1] (SBE-CD 200 mg/ml); 50 to 56 mg/mL in data set [1] (SBE-CD 300 mg/ml); roughly 60 mg/mL in data set [1] (SBE-CD 400 mg/ml); 46.2 mg/mL in data set [2] (SBE-CD 100 mg/ml, 5 mg/ml chitosan glutamate, read-out: Zolpidem tartrate solubility in presence of 5 mg/ml chitosan glutamate); 41.9 mg/mL in data set [2] (SBE-CD 100 mg/ml, no chitosan, read-out: Zolpidem tartrate solubility); 51.9 mg/mL in data set [2] (SBE-CD 150 mg/ml, 5 mg/ml chitosan glutamate, read-out: Zolpidem tartrate solubility in presence of 5 mg/ml chitosan glutamate). For the same compound, the solubility in data set [2] (SBE-CD 150 mg/ml, no chitosan, read-out: Zolpidem tartrate solubility) worked out at 46.5 mg/mL; in data set [2] (SBE-CD 200 mg/ml, 5 mg/ml chitosan glutamate, read-out: Zolpidem tartrate solubility in presence of 5 mg/ml chitosan glutamate), 55.6 mg/mL; in data set [2] (SBE-CD 200 mg/ml, no chitosan, read-out: Zolpidem tartrate solubility), 57.3 mg/mL; in data set [2] (SBE-CD 250 mg/ml, 5 mg/ml chitosan glutamate, read-out: Zolpidem tartrate solubility in presence of 5 mg/ml chitosan glutamate) it was 55.9 mg/mL; in data set [2] (SBE-CD 250 mg/ml, no chitosan, read-out: Zolpidem tartrate solubility), 56.1 mg/mL; in data set [2] (SBE-CD 300 mg/ml, 5 mg/ml chitosan glutamate, read-out: Zolpidem tartrate solubility in presence of 5 mg/ml chitosan glutamate), 63.7 mg/mL. In addition, the solubility in data set [2] (SBE-CD 300 mg/ml, no chitosan, read-out: Zolpidem tartrate solubility) was determined as 57.5 mg/mL; in data set [2] (SBE-CD 400 mg/ml, 5 mg/ml chitosan glutamate, read-out: Zolpidem tartrate solubility in presence of 5 mg/ml chitosan glutamate), 68.1 mg/mL; in data set [2] (SBE-CD 400 mg/ml, no chitosan, read-out: Zolpidem tartrate solubility), 69 mg/mL.

In the case of `Cc1ccc(-c2nc3ccc(C)cn3c2CC(=O)N(C)C)cc1` [zolpidem, N,N,6-trimethyl-2-(4-methylphenyl)-imidazo[1,2-a]pyridine-3-acetamide], the time of peak concentration (Tmax) in data set [3] (female, plasma, inhaled or intranasal, 20 mg, Tmax) is 13 min; in data set [3], 16 min. In data set [3] (intranasal solution with vs without chitosan), the “Effect of inclusion of chitosan on bioavailability” value was “significantly enhanced”.

One may read the Tmax as the time at which the peak concentration occurs.

The values are drawn from patent US8034371B2, “Intranasal compositions” (Archimedes Development Limited, priority 2003, dated 2011).
